Consider 14 compounds from PubChem BioAssay (NCI).

Molecules are shown by their SMILES.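 Five concentrations, 48 hours, 96-well plates. TGI: concentration producing complete growth inhibition.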

Common to all, as to experiment: NCI anticancer screen, dose series, 48 h
The test system of assay [1] is 786-0 renal.
Assay [2] deals with A498 renal.
Assay [3] deals with A549 NSCLC.
For assay [4], the system named is ACHN renal.
Assay [5] concerns HCT-116 colon.
Assay [6] has as its system HL-60(TB) leukemia.
For assay [7], the system named is K-562 leukemia.
Assay [8] relates to LOX IMVI melanoma.
Assay [9] has as its system MDA-MB-231 breast.
Assay [10] deals with NCI-H226 lung.
Assay [11] concerns NCI/ADR-RES ovarian.
Assay [12] concerns OVCAR-8 ovarian.
In assay [13] the test system is SF-295 CNS.
Assay [14] concerns SK-MEL-2 melanoma.
Assay [15] relates to SK-MEL-28 melanoma.
In assay [16] the test system is SK-MEL-5 melanoma.
Assay [17] has as its system SK-OV-3 ovarian.
Assay [18] concerns SN12C renal.
The subject of assay [19] is SNB-19 CNS.
For assay [20], the system named is UACC-62 melanoma.

On to `CC(=O)Nc1cccc(N2C(=O)/C(=C\c3cccc(Oc4ccccc4)c3)S(=O)(=O)C2c2ccccc2)c1` (stereo not given), for which the TGI in [1] was over 100 µM; in [2], over 100 µM; in assay [3], over 100 µM; in assay [4], over 100 µM; in assay [5] it was over 100 µM; in assay [6], 50.4 µM. Further, the TGI in assay [7] is 79.2 µM; in [8], over 100 µM; in assay [9], over 100 µM; in assay [10], over 100 µM; in assay [11] it was over 100 µM; in [12] it was over 100 µM. For the same compound, the TGI in [13], in assay [14], in assay [15], in assay [16], in [17] and in [18] was over 100 µM throughout. Moreover, the TGI in assay [19] and in assay [20] was over 100 µM in each case.

Consider `COC(=O)c1ccccc1CC1Cc2cc3c(cc2C1=O)CCC3` (stereo not given), for which the TGI in assay [1] was 89.3 µM; in assay [2] it was over 61.1 µM; in assay [3], 72.8 µM; in [4] it was over 100 µM; in [5], 29.9 µM; in assay [6] it was 27.6 µM. In addition, the TGI in assay [7] was 44.5 µM; in [8] it was 31.1 µM; in assay [9], 80.2 µM; in assay [10] it was 63.7 µM; in assay [11], 21.8 µM; in [12], over 80.8 µM. In addition, the TGI in [13] was 77.4 µM; in [14] it was 19.7 µM; in [15], over 100 µM; in assay [16], 20.9 µM; in [17] it was over 71.8 µM; in assay [18], over 67.2 µM. For the same compound, the TGI in [19] was over 100 µM; in assay [20], 69.6 µM.

Take `O=C1OC(C2Cc3ccc4c(c3C2=O)CCC4)c2ccccc21` (stereo not given): the TGI is over 100 µM in assay [1]; over 100 µM in assay [2]; over 100 µM in assay [3]; over 100 µM in [4]; over 100 µM in assay [5]; 83.1 µM in [6]. Besides, the TGI was over 100 µM in [7]; over 100 µM in [8]; over 100 µM in assay [9]; 83.6 µM in assay [10]; over 100 µM in assay [11]; over 100 µM in assay [12]. For the same compound, the TGI in [13], in assay [14], in assay [15], in [16], in assay [17] and in assay [18] was over 100 µM each time. Further, the TGI in [19] and in assay [20] was over 100 µM throughout.

For `C/C=C/C=C\C=C/C(O)C(C)C(CCC(C)C1OC(=O)C=CC1C)OP(=O)(O)O` (stereo not given), the TGI was determined as 1.51 µM in [1]; 0.404 µM in assay [2]; 3.83 µM in assay [3]; 1.26 µM in assay [4]; 0.717 µM in assay [5]; 0.17 µM in [6]. The TGI was 0.905 µM in assay [7]; 1.09 µM in [8]; over 71.1 µM in assay [9]; 2.02 µM in [10]; 2.88 µM in assay [11]; 1.26 µM in [12]. For the same compound, the TGI in [13] came to 1.01 µM; in assay [14], 2.32 µM; in assay [15] it was 2.12 µM; in assay [16], 1.84 µM; in assay [17], 1.68 µM; in assay [18], 1.11 µM. Besides, the TGI is 1.99 µM in [19] and 1.11 µM in assay [20].

As to `Cc1c(/C=N/NC(=S)Nc2ccc(Cl)cc2)c(=O)n(-c2ccccc2)n1C`, the TGI is 31.2 µM in assay [1]; over 58.8 µM in assay [2]; over 95.9 µM in assay [3]; 31.9 µM in assay [4]; over 62.5 µM in assay [5]; over 100 µM in [6]. Besides, the TGI is over 100 µM in assay [7]; over 100 µM in assay [8]; 1.99 µM in [9]; 53.8 µM in [10]; 48.9 µM in assay [11]; over 60.6 µM in assay [12]. Also, the TGI in [13] was 44.5 µM; in assay [14] it was 69 µM; in [15], over 100 µM; in [16], over 31.6 µM; in assay [17], 35.8 µM; in [18], over 100 µM. Also, the TGI is over 60.8 µM in assay [19] and over 79 µM in assay [20].

For `COc1ccc(NC(C)=O)cc1N1C(=O)/C(=C\c2ccccc2)SC1c1cc(OC)c(OC)c(OC)c1` (stereo not given), the TGI was 49.2 µM in [1]; over 100 µM in [2]; over 100 µM in assay [3]; over 100 µM in assay [4]; 29.5 µM in [5]; 81 µM in assay [6]. The TGI in assay [7] is over 100 µM; in assay [8], 34.5 µM; in assay [9], over 100 µM; in assay [10], 48.3 µM; in assay [11] it was 41 µM; in assay [12], 71.4 µM. The TGI in assay [13] was over 100 µM; in assay [14] it was over 100 µM; in [15], over 100 µM; in assay [16] it was 37 µM; in assay [17] it was over 100 µM; in assay [18] it was over 100 µM. The TGI in assay [19] and in assay [20] was over 100 µM throughout.

With `C=C1C(=O)O[C@@H]2/C=C(\C)CC/C=C(\C)CC[C@@]12O`, the TGI came out at 2.71 µM in assay [1]; 24.8 µM in assay [2]; 27.1 µM in [3]; 3.36 µM in [4]; 6.69 µM in [5]; 3.02 µM in assay [6]. The TGI came out at 12.6 µM in assay [7]; 5.23 µM in [8]; 22.8 µM in assay [9]; 59.2 µM in assay [10]; 41.6 µM in assay [11]; 5.18 µM in [12]. In addition, the TGI in assay [13] worked out at 25.2 µM; in assay [14], 25.7 µM; in assay [15], 13.3 µM; in assay [16] it was 15.5 µM; in [17] it was 54.4 µM; in assay [18], 7.91 µM. The TGI in [19] is 16.9 µM; in [20] it was 23.6 µM.

`CN(C)C=Nc1c2ccccc2nc2ccccc12`: the TGI in assay [1] worked out at 16.9 µM; in assay [2], 21 µM; in assay [3], 17.3 µM; in assay [4], 34 µM; in assay [5], 17.8 µM; in assay [6], 18.2 µM. The TGI in assay [7] is 22.6 µM; in [8], 7.13 µM; in [9], 21.5 µM; in assay [10], 9.06 µM; in assay [11] it was 34.6 µM; in [12], 18.3 µM. The TGI in assay [13] stood at 21.6 µM; in [14] it was 9.26 µM; in [15] it was 5.42 µM; in assay [16] it was 12.5 µM; in assay [17], 23.4 µM; in assay [18], 11.9 µM. In addition, the values for the TGI in assay [19] and in assay [20] were 17.9 µM and 7.65 µM, respectively.

On to `CCOC(=O)C1(C#N)C(=O)c2cc[n+](CC[n+]3ccc4c(c3)C(=O)C(C#N)(C(=O)OCC)C4=O)cc2C1=O` (stereo not given), for which the TGI in assay [1], in assay [2], in assay [3], in assay [4], in [5] and in assay [6] was over 100 µM throughout. Further, the TGI in assay [7], in [8], in assay [9], in assay [10], in assay [11] and in assay [12] was over 100 µM each time. For the same compound, the TGI in assay [13] is over 100 µM; in assay [14], over 100 µM; in assay [15] it was over 100 µM; in [16], 38.5 µM; in assay [17], over 100 µM; in assay [18], over 100 µM. Besides, the TGI in assay [19] and in assay [20] was over 100 µM each time.

With `O=C1/C(=C/c2ccc(O)cc2)CCc2ccc([N+](=O)[O-])cc21`, the TGI in assay [1], in [2], in assay [3], in assay [4], in [5] and in assay [6] was over 100 µM in each case. The TGI in assay [7] was over 100 µM; in assay [8] it was over 100 µM; in assay [9] it was over 100 µM; in assay [10] it was over 92.7 µM; in [11] it was over 100 µM; in [12] it was over 100 µM. Also, the TGI in assay [13], in assay [14], in assay [15], in assay [16], in assay [17] and in assay [18] was over 100 µM throughout. Besides, the results for the TGI in assay [19] and in [20] were 98.7 µM and over 100 µM, respectively.

In the case of `C=C1[C@H](OCC(C)C)[C@@H](O)[C@@H](OC(=O)c2cccnc2)C(C)(C)/C=C/[C@H](C)[C@H](OC(C)=O)[C@@]2(O)C[C@@](C)(OC(C)=O)[C@H](OC(=O)c3ccccc3)[C@@H]2[C@H]1OC(C)=O`, the TGI is over 5 µM in assay [1]; 2.79 µM in assay [2]; over 5 µM in assay [3]; 2.87 µM in [4]; over 5 µM in assay [5]; over 2.09 µM in assay [6]. Also, the TGI in [7] is over 3.36 µM; in assay [8], over 5 µM; in assay [9], over 5 µM; in [10], 4.57 µM; in assay [11], over 3.25 µM; in assay [12] it was over 3.28 µM. The TGI in assay [13] was over 4.14 µM; in assay [14] it was over 3.78 µM; in assay [15], over 5 µM; in assay [16], over 5 µM; in [17] it was over 5 µM; in assay [18] it was over 5 µM. In addition, the TGI in [19] and in assay [20] was over 5 µM in each case.

For the compound `O/N=C(/CC(O)(C(F)(F)F)C(F)(F)F)c1ccccc1`, the TGI in [1], in assay [2], in [3], in assay [4], in assay [5] and in assay [6] was over 10 µM in each case. The TGI in assay [7], in assay [8], in [9], in assay [10], in [11] and in assay [12] was over 10 µM throughout. For the same compound, the TGI in [13], in assay [14], in [15], in assay [16], in assay [17] and in assay [18] was over 10 µM each time. Besides, the TGI in assay [19] and in assay [20] was over 10 µM each time.

As for `Cc1cc2nc(C=C(C(F)(F)F)C(F)(F)F)sc2cc1C`, the TGI in assay [1] worked out at 5.17 µM; in [2], 28.5 µM; in assay [3] it was 26.7 µM; in [4] it was 7.48 µM; in [5], 2.93 µM; in [6] it was 3.86 µM. Further, the TGI was over 100 µM in assay [7]; 4.99 µM in assay [8]; 23.9 µM in assay [9]; 6.79 µM in [10]; 14.6 µM in assay [11]; 4.4 µM in assay [12]. The TGI in assay [13] was 13.4 µM; in [14], 5.27 µM; in [15], 14.5 µM; in assay [16], 8.77 µM; in assay [17], 32.7 µM; in [18], 1.63 µM. Besides, the results for the TGI in assay [19] and in assay [20] were 9.89 µM and 4.98 µM, respectively.

Consider `CC(=O)NC(Cc1ccccc1)NC(=O)O` (stereo not given), for which the TGI in assay [1], in assay [2], in assay [3], in assay [4], in assay [5] and in assay [6] was over 100 µM throughout. Moreover, the TGI in assay [7], in assay [8], in assay [9], in assay [10], in [11] and in assay [12] was over 100 µM throughout. The TGI in [13], in assay [14], in [15], in assay [16], in [17] and in assay [18] was over 100 µM throughout. Further, the TGI in assay [19] and in assay [20] was over 100 µM each time.
